From US20200369728A1, “PEPTIDOMIMETIC MACROCYCLES AND USES THEREOF” (Aileron Therapeutics, Inc., priority 2015, published 2020)
Bridge positions count the residues as written; N and C are the ends. Square brackets hold non-standard residues; d marks the D form. Peptide text beside a SMILES is read from it. R8 = C=CCCCCCC[C@@](C)(N)C(=O)O; S5 = C=CCCC[C@](C)(N)C(=O)O

How the values were obtained:
SJSA-1 = assay: Cell viability assay (MTT), SJSA-1; conditions: read-out: SJSA-1 EC50 (72 h); 72 h, MTT
Caspase 3 = Caspase 3 detection assay in SJSA1 cells; assay type: cell-based; conditions: SJSA1, 48 h, Caspase 3 activation over DMSO-treated cells
[1] = Circular dichroism (CD) analysis of alpha-helicity; assay type: physicochemical; conditions: for Molar Ellipticity TFE − Molar Ellipticity Benign / Molar Ellipticity 50% TFE (222 in 50% TFE) / Molar Ellipticity Benign (222 in 0% TFE): 222 nm; for Molar Ellipticity 50% TFE (222 in 50% TFE): CD buffer with 50% TFE; for Molar Ellipticity 50% TFE (222 in 50% TFE) / Molar Ellipticity Benign (222 in 0% TFE): 0.05 mg/ml, 4° C.; for Molar Ellipticity Benign (222 in 0% TFE): benign CD buffer (20 mM phosphoric acid, pH 2); for % Helix benign compared to 50% TFE parent (CD): benign buffer
Protocol: Peptide solutions were analyzed by CD spectroscopy using a Jasco J-815 spectropolarimeter (Jasco Inc., Easton, Md.) with the Jasco Spectra Manager Ver. 2 system software. A Peltier temperature controller was used to maintain temperature control of the optical cell. Results are expressed as mean molar ellipticity (deg cm^2 dmol^−1) as calculated from the equation [0]=θobs·MRW/10*l*c where θobs is the observed ellipticity in millidegrees, MRW is the mean residue weight of the peptide (peptide molecular weight/number of residues), 1 is the optical path length of the cell in centimeters, and c is the peptide concentration in mg/ml. Peptide concentrations were determined by amino acid analysis. Stock solutions of peptides were prepared in benign CD buffer (20 mM phosphoric acid, pH 2). The stocks were used to prepare peptide solutions of 0.05 mg/ml in either benign CD buffer or CD buffer with 50% trifluoroethanol (TFE) for analyses in a 10 mm pathlength cell. Variable wavelength measurements of peptide solutions were scanned at 4° C. from 195 to 250 nm, in 0.2 nm increments, and a scan rate 50 nm per minute. The average of six scans was reported.

SJSA-1 cells = assay: Cell lysis by peptidomimetic macrocycles (LDH release); assay type: cell-based; conditions: SJSA-1, 1 h
Method in brief: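 SJSA-1 cells plated the day before, switched to RPMI with 1% FBS, then exposed 1 h at 37 °C to macrocycle at final 50 μM to 6.25 μM in 0.5% DMSO. LDH released into the supernatant was measured by kit. Controls: 0.5% DMSO (non-lytic), 10 μM melittin and 1% Triton X-100 (lytic).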

RKO = assay: Cell viability assay (MTT), RKO; conditions: read-out: RKO EC50 (72 h)

Row | SMILES | EC50 (SJSA-1) [µM] | caspase 0.3 μM (Caspase 3) | caspase 3 μM (Caspase 3) | caspase 10 μM (Caspase 3) | caspase 30 μM (Caspase 3) | % Helix 50% TFE compared to 50% TFE parent (CD) [1] [%] | Molar Ellipticity TFE − Molar Ellipticity Benign [1] [deg cm^2 dmol^−1] | Molar Ellipticity 50% TFE (222 in 50% TFE) [1] [deg cm^2 dmol^−1] | Molar Ellipticity Benign (222 in 0% TFE) [1] [deg cm^2 dmol^−1] | % Helix benign compared to 50% TFE parent (CD) [1] [%] | 6.25 μM % Lysed cells (1 h LDH) (SJSA-1 cells) [%] | 25 μM % Lysed cells (1 h LDH) (SJSA-1 cells) [%] | 50 μM % Lysed cells (1 h LDH) (SJSA-1 cells) [%] | EC50 (RKO) [µM] | caspase 1 μM (Caspase 3)
1 | CCCC[C@H](NC(=O)[C@H](C)NC(=O)[C@H](C)NC(=O)[C@]1(C)CCCC=CCCCCCC[C@@](C)(NC(=O)[C@H](Cc2ccccc2)NC(=O)[C@@H](NC(=O)[C@H](CC(C)C)NC(C)=O)[C@@H](C)O)C(=O)N[C@@H](C)C(=O)N[C@@H](Cc2ccc(O)cc2)C(=O)N[C@@H](Cc2c[nH]c3ccccc23)C(=O)N[C@@H](C)C(=O)N[C@@H](CCC(N)=O)C(=O)N[C@@H](CC(C)C)C(=O)N1)C(=O)N[C@@H](C)C(N)=O (single isomer, unassigned) [compound 68] | < 5 | – | – | – | – | – | – | – | – | – | – | – | – | – | –
2 | CCCC[C@H](NC(=O)[C@H](C)NC(=O)[C@H](C)NC(=O)[C@]1(C)CCCC=CCCCCCC[C@@](C)(NC(=O)[C@H](Cc2ccccc2)NC(=O)[C@@H](NC(=O)[C@H](CC(C)C)NC(C)=O)[C@@H](C)O)C(=O)N[C@@H](C)C(=O)N[C@@H](Cc2ccc(O)cc2)C(=O)N[C@@H](Cc2c[nH]c3ccccc23)C(=O)N[C@@H](C)C(=O)N[C@@H](CCC(N)=O)C(=O)N[C@@H](CC(C)C)C(=O)N1)C(=O)N[C@H](C)C(N)=O (single isomer, unassigned) [compound 74] | < 5 | – | – | – | – | – | – | – | – | – | – | – | – | – | –
3 | CC(=O)N[C@@H](CC(C)C)C(=O)N[C@H](C(=O)N[C@@H](Cc1ccccc1)C(=O)N[C@]1(C)CCCCCCC=CCCC[C@@](C)(C(=O)N[C@@H](C)C(=O)N[C@@H](C)C(=O)N[C@@H](C)C(=O)N[C@H](C)C(N)=O)NC(=O)[C@H](CC(C)C)NC(=O)[C@H](CCC(N)=O)NC(=O)[C@H](C)NC(=O)[C@H](Cc2c[nH]c3ccccc23)NC(=O)[C@H](Cc2ccc(O)cc2)NC(=O)[C@H](C)NC1=O)[C@@H](C)O (single isomer, unassigned) [compound 230] | – | 1 | 2 | 3 | 11 | 123.9 | −17760.8 | −17974 | −213.2 | 1.5 | 0.5 | 0 | 3 | – | –
4 | CC(=O)N[C@@H](CC(C)C)C(=O)N[C@H](C(=O)N[C@@H](Cc1ccccc1)C(=O)N[C@]1(C)CCCCCCC=CCCC[C@@](C)(C(=O)N[C@@H](C)C(=O)N[C@@H](C)C(=O)N[C@@H](C)C(=O)N[C@@H](C)C(=O)N[C@@H](C)C(=O)N[C@H](C)C(N)=O)NC(=O)[C@H](CC(C)C)NC(=O)[C@H](CCC(N)=O)NC(=O)[C@H](C)NC(=O)[C@H](Cc2c[nH]c3ccccc23)NC(=O)[C@H](Cc2ccc(O)cc2)NC(=O)[C@H](CCC(=O)O)NC1=O)[C@@H](C)O (single isomer, unassigned) [compound 449] | < 5 | – | – | – | – | – | – | – | – | – | – | – | – | – | –
5 | CC(=O)N[C@@H](CC(C)C)C(=O)N[C@H](C(=O)N[C@@H](Cc1ccccc1)C(=O)N[C@]1(C)CCCCCCC=CCCC[C@@](C)(C(=O)N[C@@H](C)C(=O)N[C@@H](C)C(=O)N[C@@H](C)C(=O)N[C@H](C)C(=O)N[C@@H](C)C(=O)N[C@H](C)C(N)=O)NC(=O)[C@H](CC(C)C)NC(=O)[C@H](CCC(N)=O)NC(=O)[C@H](C)NC(=O)[C@H](Cc2c[nH]c3ccccc23)NC(=O)[C@H](Cc2ccc(O)cc2)NC(=O)[C@H](CCC(=O)O)NC1=O)[C@@H](C)O (single isomer, unassigned) [compound 571] | < 5 | – | – | – | – | – | – | – | – | – | – | – | – | – | –
6 | CC(=O)N[C@@H](CC(C)C)C(=O)N[C@H](C(=O)N[C@@H](Cc1ccccc1)C(=O)N[C@]1(C)CCCCCCC=CCCC[C@@](C)(C(=O)N[C@@H](CO)C(=O)N[C@@H](C)C(=O)N[C@@H](Cc2ccccc2)C(N)=O)NC(=O)[C@H](CC(C)C)NC(=O)[C@H](CCC(N)=O)NC(=O)[C@H](C)NC(=O)[C@H](Cc2c[nH]c3ccccc23)NC(=O)[C@H](Cc2ccc(O)cc2)NC(=O)[C@H](C)NC1=O)[C@@H](C)O [compound 7] (Ac-LTF[R8]AYWAQL[S5]SAF-NH2; staple 4-11) | – | 0.93 | 5.08 | 21.7 | 23.96 | 137.3 | −20045.4 | −19921.4 | 124 | −0.9 | 0 | 0 | 0 | < 5 | 1.4
7 | CC(=O)N[C@@H](CC(C)C)C(=O)N[C@H](C(=O)N[C@@H](Cc1ccccc1)C(=O)N[C@]1(C)CCCCCCC=CCCC[C@@](C)(C(=O)N[C@@H](CO)C(=O)N[C@@H](C)C(=O)N[C@@H](C)C(N)=O)NC(=O)[C@H](CC(C)C)NC(=O)[C@H](CCC(N)=O)NC(=O)[C@H](C)NC(=O)[C@H](Cc2c[nH]c3ccccc23)NC(=O)[C@H](Cc2ccc(O)cc2)NC(=O)[C@H](C)NC1=O)[C@@H](C)O [compound 11] (Ac-LTF[R8]AYWAQL[S5]SAA-NH2; staple 4-11) | – | 1 | 5 | 23 | 33.5 | 106.1 | 16225.2 | −16623.4 | −398.2 | 2.5 | −2 | 2 | 3 | < 5 | –
8 | CC(=O)N[C@@H](CC(C)C)C(=O)N[C@H](C(=O)N[C@@H](Cc1ccccc1)C(=O)N[C@]1(C)CCCCCCC=CCCC[C@@](C)(C(=O)N[C@@H](Cc2c[nH]cn2)C(=O)N[C@@H](Cc2c[nH]cn2)C(=O)N[C@@H](CC(C)C)C(=O)N[C@H](C)C(N)=O)NC(=O)[C@H](CC(C)C)NC(=O)[C@H](CCC(N)=O)NC(=O)[C@H](C)NC(=O)[C@H](Cc2c[nH]c3ccccc23)NC(=O)[C@H](Cc2ccc(O)cc2)NC(=O)[C@H](C)NC1=O)[C@@H](C)O [compound 43] (Ac-LTF[R8]AYWAQL[S5]HHL[dA]-NH2; staple 4-11) | – | – | – | – | – | 116.4 | 2912.9 | −18247.4 | −15334.5 | 97.8 | 0 | −1 | −1 | – | –
9 | CC(=O)N[C@@H](CC(C)C)C(=O)N[C@H](C(=O)N[C@@H](Cc1ccccc1)C(=O)N[C@]1(C)CCCCCCC=CCCC[C@@](C)(C(=O)N[C@@H](C)C(=O)N[C@@H](C)C(=O)N[C@@H](C)C(=O)N[C@@H](C)C(=O)N[C@H](C)C(N)=O)NC(=O)[C@H](CC(C)C)NC(=O)[C@H](CCC(N)=O)NC(=O)[C@H](C)NC(=O)[C@H](Cc2c[nH]c3ccccc23)NC(=O)[C@H](Cc2ccc(O)cc2)NC(=O)[C@H](C)NC1=O)[C@@H](C)O [compound 233] | – | 6 | 17 | 22 | 23 | 131.2 | −18554.7 | −19032.6 | −477.9 | 3.3 | 2.5 | 3.5 | 6 | – | 8
